Measured values reported in patent publication US8648066B2 (Exelixis, Inc., priority 2009, dated 2014).
pIC50: −log10 of the molar value.

Molecular target: mTOR/GbL/Raptor (mTORC1) (Homo sapiens, UniProt P42345)
Assay: mTOR/GbL/Raptor (mTORC1) ELISA assay
Assay type: biochemical
Conditions: phosphorylation of 4E-BP1; 0.2 nM mTORC1, 10 μM ATP; read-out: IC50 in this assay (mTORC1 ELISA)
Method in brief: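 ELISA read-out: phospho-4E-BP1 captured on Ni-chelate plates and detected with anti-phospho antibody plus HRP-anti-IgG luminescence. The kinase step ran 120 min at ambient temperature with 0.2 nM human mTORC1, 10 µM ATP, 50 nM His-4E-BP1, 10 mM MnCl2, pH 7.2 HEPES.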

| Structure (SMILES) | pIC50 |
| --- | --- |
| COc1ccc(-c2ccc3c(c2)CN(c2nc(CN(C)C)nc4c2CC(C)(C)CC4)CCO3)cc1Cl [Example 324, 1-(4-{7-[3-chloro-4-(methyloxy)phenyl]-2,3-dihydro-1,4-benzoxazepin-4(5H)-yl}-6,6-dimethyl-5,6,7,8-tetrahydroquinazolin-2-yl)-N,N-dimethylmethanamine] | 6.00 to 6.60 |
| CCN(C)Cc1nc2c(c(N3CCOc4ccc(-c5cnc6nc(C)[nH]c6c5)cc4C3)n1)CC(C)(C)CC2 [Example 605, N-({6,6-dimethyl-4-[7-(2-methyl-1H-imidazo[4,5-b]pyridin-6-yl)-2,3-dihydro-1,4-benzoxazepin-4(5H)-yl]-5,6,7,8-tetrahydroquinazolin-2-yl}methyl)-N-methylethanamine] | ≥ 8.00 |
| COc1cncc(-c2ccc3c(c2)CN(c2ncnc4c2CC(C)(C)CC4)CCO3)c1 [Example 476, 4-(6,6-dimethyl-5,6,7,8-tetrahydroquinazolin-4-yl)-7-[5-(methyloxy)pyridin-3-yl]-2,3,4,5-tetrahydro-1,4-benzoxazepine] | 6.00 to 6.60 |
| CCNc1ncnc(N2CCOc3ccc(-c4cnc5nc(C)[nH]c5c4)cc3C2)c1C [Example 639, N-ethyl-5-methyl-6-[7-(2-methyl-1H-imidazo[4,5-b]pyridin-6-yl)-2,3-dihydro-1,4-benzoxazepin-4(5H)-yl]pyrimidin-4-amine] | 6.00 to 6.60 |
| CC(C)(CN)CNS(=O)(=O)c1cc(-c2ccc3c(c2)CN(c2ncnc4c2CC(C)(C)CC4)CCO3)cnc1N [Example 411, 2-amino-N-(3-amino-2,2-dimethylpropyl)-5-[4-(6,6-dimethyl-5,6,7,8-tetrahydroquinazol-4-yl)-2,3,4,5-tetrahydro-1,4-benzoxazepin-7-yl]pyridine-3-sulfonamide] | 7.30 to 8.00 |
| Cc1nc(N2CCOc3ccc(-c4ccc(N)nc4)cc3C2)c2ccccc2n1 [Example 266, 5-[4-(2-methylquinazolin-4-yl)-2,3,4,5-tetrahydro-1,4-benzoxazepin-7-yl]pyridin-2-amine] | 6.00 to 6.60 |
| Cc1nc2ccc(-c3ccc4c(c3)CN(c3ncnc5ccc(OCCCN(C)C)cc35)CCO4)cc2[nH]1 [Example 161, N,N-dimethyl-3-({4-[7-(2-methyl-1H-benzimidazol-6-yl)-2,3-dihydro-1,4-benzoxazepin-4(5H)-yl]quinazolin-6-yl}oxy)propan-1-amine] | 5.70 to 6.00 |
| C=C[C@H]1CCCc2c(ncnc2N2CCOc3ccc(-c4cnc5nc(C)[nH]c5c4)cc3C2)C1 [Example 489, 4-[(8S)-8-ethenyl-6,7,8,9-tetrahydro-5H-cyclohept[d]pyrimidin-4-yl]-7-(2-methyl-1H-imidazo[4,5-b]pyridin-6-yl)-2,3,4,5-tetrahydro-1,4-benzoxazepine] | ≥ 8.00 |
| Cc1nc(C)c(CC2CC2)c(N2CCOc3ccc(-c4cnc5nc(C)[nH]c5c4)cc3C2)n1 [Example 492, 4-[5-(cyclopropylmethyl)-2,6-dimethylpyrimidin-4-yl]-7-(2-methyl-1H-imidazo[4,5-b]pyridin-6-yl)-2,3,4,5-tetrahydro-1,4-benzoxazepine] | 7.30 to 8.00 |
| Cc1ncnc(N2CCOc3ccc(-c4cc5[nH]c(N)nc5cn4)cc3C2)c1Cc1ccc(F)cc1 [Example 216, 6-(4-{5-[(4-fluorophenyl)merthyl]-6-methylpyrimidin-4-yl}-2,3,4,5-tetrahydro-1,4-benzoxazepin-7-yl)-1H-imidazo[4,5-c]pyridin-2-amine] | 7.30 to 8.00 |
| COc1ccc2c(N3CCOc4ccc(-c5ccc6nc(N)[nH]c6c5)cc4C3)nc(C)nc2c1 [Example 539, 6-{4-[2-methyl-7-(methyloxy)quinazolin-4-yl]-2,3,4,5-tetrahydro-1,4-benzoxazepin-7-yl}-1H-benzimidazol-2-amine] | 6.60 to 7.30 |
| Cc1ncnc(N2CCOc3ccc(-c4cnc5sc(N)nc5c4)cc3C2)c1Cc1ccc(F)cc1 [Example 217, 6-(4-{5-[(4-fluorophenyl)methyl]-6-methylpyrimidin-4-yl}-2,3,4,5-tetrahydro-1,4-benzoxazepin-7-yl)[1,3]thiazolo[5,4-b]pyridin-2-amine] | ≥ 8.00 |
| CC[C@H](C)NCc1nc2c(c(N3CCOc4ccc(-c5cnc6nc(C)[nH]c6c5)cc4C3)n1)CC(C)(C)CC2 [Example 304, (2S)-N-({6,6-dimethyl-4-[7-(2-methyl-1H-imidazo[4,5-b]pyridin-6-yl)-2,3-dihydro-1,4-benzoxazepin-4(5H)-yl]-5,6,7,8-tetrahydroquinazolin-2-yl}methyl)butan-2-amine] | ≥ 8.00 |
| c1cc(N2CCOc3ccc(-c4cnc5nc[nH]c5c4)cc3C2)ncn1 [Example 543, 7-(1H-imidazo[4,5-b]pyridin-6-yl)-4-pyrimidin-4-yl-2,3,4,5-tetrahydro-1,4-benzoxazepine] | 5.70 to 6.00 |
| COc1ccc(-c2ccc3c(c2)CN(c2nc(CN(C)C)nc(C)c2C(C)C)CCO3)cc1NS(C)(=O)=O [Example 656, N-[5-(4-{2-[(dimethylamino)methyl]-6-methyl-5-(1-methylethyl)pyrimidin-4-yl}-2,3,4,5-tetrahydro-1,4-benzoxazepin-7-yl)-2-(methyloxy)phenyl]methane-sulfonamide] | 6.00 to 6.60 |
| CCNc1nc2ccc(-c3ccc4c(c3)CN(c3cc(Nc5ccc(OC)cc5)ncn3)CCO4)cc2[nH]1 [Example 276, N-ethyl-6-[4-(6-{[4-(methyloxy)phenyl]amino}pyrimidin-4-yl)-2,3,4,5-tetrahydro-1H-benzoxazepin-7-yl]-1H-benzimidazol-2-amine] | 6.00 to 6.60 |
| CN(C)S(=O)(=O)c1cncc(-c2ccc3c(c2)CN(c2ncnc4c2CC(C)(C)CC4)CCO3)c1 [Example 521, 5-[4-(6,6-dimethyl-5,6,7,8-tetrahydroquinazolin-4-yl)-2,3,4,5-tetrahydro-1,4-benzoxazepin-7-yl]-N,N-dimethylpyridine-3-sulfonamide] | 6.00 to 6.60 |
| CC1(C)CCc2ncnc(N3CCOc4ccc(-c5cnc(N)c(S(=O)(=O)NC[C@@H]6CCNC6)c5)cc4C3)c2C1 [Example 388, 2-amino-5-[4-(6,6-dimethyl-5,6,7,8-tetrahydroquinazolin-4-yl)-2,3,4,5-tetrahydro-1,4-benzoxazepin-7-yl]-N-[(3R)-pyrrolidin-3-ylmethyl]pyridine-3-sulfonamide] | 7.30 to 8.00 |
| Nc1nc2ccc(-c3ccc4c(c3)CN(c3nc(-c5ccccc5)nc5ccccc35)CCO4)cc2[nH]1 [Example 233, 6-[4-(2-phenylquinazolin-4-yl)-2,3,4,5-tetrahydro-1,4-benzoxazepin-7-yl]-1H-benzimidazol-2-amine] | 6.60 to 7.30 |
| Cc1c(NCCC2CCCN2C)ncnc1N1CCOc2ccc(-c3cnc4nc(C5CC5)[nH]c4c3)cc2C1 (centres unmarked) [Example 534, 6-[7-(2-cyclopropyl-1H-imidazo[4,5-b]pyridin-6-yl)-2,3-dihydro-1,4-benzoxazepin-4(5H)-yl]-5-methyl-N-[2-(1-methylpyrrolidin-2-yl)ethyl]pyrimidin-4-amine] | 5.70 to 6.00 |
| CC1(C)CCc2ncnc(N3CCOc4ccc(-c5cnc(N)c(S(=O)(=O)NCCF)c5)cc4C3)c2C1 [Example 366, 2-amino-5-[4-(6,6-dimethyl-5,6,7,8-tetrahydroquinazolin-4-yl)-2,3,4,5-tetrahydro-1,4-benzoxazepin-7-yl]-N-(2-fluoroethyl)pyridine-3-sulfonamide] | 7.30 to 8.00 |
| COc1ccc2c(N3CCOc4ccc(-c5cnc6[nH]ccc6c5)cc4C3)nc(C)nc2c1 [Example 267, 4-[2-methyl-7-(methyloxy)quinazolin-4-yl]-7-(1H-pyrrolo[2,3-b]pyridin-5-yl)-2,3,4,5-tetrahydro-1,4-benzoxazepine] | 6.00 to 6.60 |
| Cc1nc2ncc(-c3ccc4c(c3)CN(c3ncnc5c3CCC(C(F)(F)F)C5)CCO4)cc2[nH]1 (centres unmarked) [Example 566, 7-(2-methyl-1H-imidazo[4,5-b]pyridin-6-yl)-4-[7-(trifluoromethyl)-5,6,7,8-tetrahydroquinazolin-4-yl]-2,3,4,5-tetrahydro-1,4-benzoxazepine] | 7.30 to 8.00 |
| Cc1cccc(Cc2c(C)ncnc2N2CCOc3ccc(-c4ccc5nc(C)[nH]c5c4)cc3C2)c1 [Example 82, 7-(2-methyl-1H-benzimidazol-6-yl)-4-{6-methyl-5-[(3-methylphenyl)methyl]pyrimidin-4-yl}-2,3,4,5-tetrahydro-1,4-benzoxazepine] | 7.30 to 8.00 |
| c1cc(N2CCOc3ccc(-c4ccc5nc[nH]c5c4)cc3C2)ncn1 [Example 541, 7-(1H-benzimidazol-6-yl)-4-pyrimidin-4-yl-2,3,4,5-tetrahydro-1,4-benzoxazepine] | ≤ 5.70 |
| CC1(C)CCc2ncnc(N3CCOc4ccc(-c5cnc(N)c(S(=O)(=O)N6CCC(O)CC6)c5)cc4C3)c2C1 [Example 317, 1-({2-amino-5-[4-(6,6-dimethyl-5,6,7,8-tetrahydroquinazolin-4-yl)-2,3,4,5-tetrahydro-1,4-benzoxazepin-7-yl]pyridin-3-yl}sulfonyl)piperidin-4-ol] | 6.60 to 7.30 |
| CC1(C)CCc2ncnc(N3CCOc4ccc(-c5cnc(N)c(S(=O)(=O)NC[C@H]6C[C@H]7CNC[C@H]7C6)c5)cc4C3)c2C1 [Example 384, 2-amino-5-[4-(6,6-dimethyl-5,6,7,8-tetrahydroquinazolin-4-yl)-2,3,4,5-tetrahydro-1,4-benzoxazepin-7-yl]-N-[(3aR,5r,6aS)-octahydrocyclopenta[c]pyrrol-5-ylmethyl]pyridine-3-sulfonamide] | 6.60 to 7.30 |
| Cc1nc(N)nc(N2CCOc3ccc(-c4cnc5sc(N)nc5c4)cc3C2)c1Cc1ccc(F)cc1 [Example 692, 6-(4-{2-amino-5-[(4-fluorophenyl)methyl]-6-methylpyrimidin-4-yl}-2,3,4,5-tetrahydro-1,4-benzoxazepin-7-yl)[1,3]thiazolo[5,4-b]pyridin-2-amine] | ≥ 8.00 |
| Cc1nc2cc(-c3ccc4c(c3)CN(c3nc(C(C)N)nc5c3CC(C)(C)CC5)CCO4)ccc2[nH]1 (centres unmarked) [Example 668, 1-{6,6-dimethyl-4-[7-(2-methyl-1H-benzimidazol-5-yl)-2,3-dihydro-1,4-benzoxazepin-4(5H)-yl]-5,6,7,8-tetrahydroquinazolin-2-yl}ethanamine] | ≥ 8.00 |
